We go through 62 compounds from patent US8288371B2, “Ortho pyrrolidine, benzyl-substituted heterocycle CCR1 antagonists for autoimmune diseases and inflammation” (Pharmacopeia, LLC, priority 2007, dated 2012).

Bounds are passed on as bounds.

In the test the target is T1, human CCR1 (Homo sapiens, UniProt P32246).
T1 sequence (P32246 1-355): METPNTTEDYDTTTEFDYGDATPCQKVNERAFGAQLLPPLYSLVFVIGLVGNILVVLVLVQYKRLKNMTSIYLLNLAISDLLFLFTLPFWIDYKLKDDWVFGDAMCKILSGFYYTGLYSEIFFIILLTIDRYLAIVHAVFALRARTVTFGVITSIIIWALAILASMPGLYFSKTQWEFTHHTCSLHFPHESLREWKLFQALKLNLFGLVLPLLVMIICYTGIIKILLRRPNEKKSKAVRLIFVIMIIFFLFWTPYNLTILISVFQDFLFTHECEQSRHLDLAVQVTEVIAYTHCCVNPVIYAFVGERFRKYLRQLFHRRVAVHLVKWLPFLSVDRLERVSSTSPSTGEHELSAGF
The experiment in a line: CCR1 binding protocol (SPA, [125I]-MIP-1α displacement). As to conditions: cell membrane expressing human CCR1, 0.1 nM [125I]-MIP-1α, 4 hours at ambient temperature; read-out: Relative potency (IC50). The essentials: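 Human CCR1 membranes (0.5 μg/well) on SPA beads were incubated with compound and 0.1 nM [125I]-MIP-1α (final) for 4 h at ambient temperature. Buffer was Tris pH 7.4 with NaCl, KCl, MnCl and 0.1% BSA. IC50 came from ½-log compound dilutions (10 mM top DMSO stock) by displacement of bound radioligand.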
The IC50 is the concentration that inhibits the measured activity by half. As to `O=C(Nc1ccc(Cl)cc1F)N1CCC[C@@H]1c1nnc(Cl)n1Cc1ccc(Cl)cc1` [Compound 552], the IC50 was less than 50 nM.

Consider `Cc1nc(C(F)(F)F)ccc1NC(=O)N1CCC[C@@H]1c1nnc(C)n1Cc1cccc(Br)c1` [Compound 553], for which the concentration for half-maximal inhibition (IC50) fell in the range of 500 to 5000 nM.

As for `Cc1noc(C)c1NC(=O)N1CCC[C@@H]1c1nnc(C)n1Cc1ccc(Br)cc1` [Compound 554], the half-maximal inhibitory concentration (IC50) was 50 to 500 nM.

With `Cc1noc(C)c1Nc1c(N2CCC[C@@H]2c2nnc(C)n2Cc2ccc(Cl)cc2)c(=O)c1=O` [Compound 555], the IC50 fell in the range of 500 to 5000 nM.

Turning to `O=C(Nc1ccc(Cl)cc1F)N1CCC[C@@H]1c1nncn1Cc1ccc(Cl)cc1` [Compound 556], the IC50 is less than 50 nM.

As for `Cc1nc(C(F)(F)F)ccc1NC(=O)N1CCC[C@@H]1c1nncn1Cc1ccc(Cl)cc1` [Compound 557], the IC50 was less than 50 nM.

On to `Cc1nnc([C@H]2C[C@@H](O)CN2C(=O)Nc2ccc(OC3CCOCC3)nc2)n1Cc1ccc(Cl)cc1` [Compound 558], for which the IC50 fell in the range of 500 to 5000 nM.

As to `Cc1cc(C)c(S(=O)(=O)N(C)C)cc1NC(=O)N1CCC[C@@H]1c1nnc(C)n1Cc1ccc(Br)cc1` [Compound 559], the IC50 is less than 50 nM.

For `CC[C@H](NC(=O)N1CCC[C@@H]1c1nnc(C)n1Cc1ccc(F)cc1)c1ccc(C(F)(F)F)nc1` [Compound 560], the IC50 is less than 50 nM.

`CC[C@H](NC(=O)N1CCC[C@@H]1c1nnc(C)n1Cc1ccc(Br)cc1)c1ccc(C(F)(F)F)nc1` [Compound 561]: the IC50 is less than 50 nM.

Consider `CC[C@H](Nc1c(N2CCC[C@@H]2c2nnc(C)n2Cc2ccc(Cl)cc2)c(=O)c1=O)c1ccc(C(F)(F)F)nc1` [Compound 562], for which the concentration for half-maximal inhibition (IC50) is 50 to 500 nM.

Take `Cc1nc(C(F)(F)F)ccc1NC(=O)N1CC2CC2[C@@H]1c1nnc(C)n1Cc1ccc(Cl)cc1` (some centres unmarked) [Compound 563]: the IC50 is less than 50 nM.

Turning to `Cc1noc(C)c1NC(=O)N1CC2CC2[C@@H]1c1nnc(C)n1Cc1ccc(Cl)cc1` (some centres unmarked) [Compound 564], the IC50 was in the range of 50 to 500 nM.

As for `Cc1nnc([C@H]2C3CC3CN2C(=O)Nc2ccc(Cl)cc2F)n1Cc1ccc(Cl)cc1` (some centres unmarked) [Compound 565], the concentration for half-maximal inhibition (IC50) was in the range of 50 to 500 nM.

Take `Cc1nc(C(F)(F)F)ccc1NC(=O)N1CCC[C@@H]1c1ncc(C)n1Cc1ccc(Cl)cc1` [Compound 566]: the IC50 fell in the range of 50 to 500 nM.

`Cc1cnc([C@H]2CCCN2C(=O)Nc2ccc(Cl)cc2F)n1Cc1ccc(Cl)cc1` [Compound 567]: the IC50 lay in the range of 50 to 500 nM.

As for `Cc1nnc([C@H]2CCCN2C(=O)Nc2ccc(Cl)c(C(F)(F)F)c2)n1Cc1ccc(Br)cc1` [Compound 568], the IC50 was 50 to 500 nM.

Consider `Cc1nnc([C@H]2CC(F)CN2C(=O)NC(c2ccccc2)c2ccccc2)n1Cc1ccc(Cl)cc1` (some centres unmarked) [Compound 569], for which the IC50 is 50 to 500 nM.

For `Cc1nnc([C@H]2CC(F)CN2C(=O)NCc2ccc(Cl)c(Cl)c2)n1Cc1ccc(Cl)cc1` (some centres unmarked) [Compound 570], the IC50 is less than 50 nM.

For `Cc1nnc([C@H]2CC(F)CN2C(=O)Nc2ccc(Cl)cc2F)n1Cc1ccc(Cl)cc1` (some centres unmarked) [Compound 571], the 50% inhibitory concentration (IC50) was 50 to 500 nM.

Take `Cc1nnc([C@H]2CC(F)CN2C(=O)Nc2ccc(Cl)c(C(F)(F)F)c2)n1Cc1ccc(Cl)cc1` (some centres unmarked) [Compound 572]: the IC50 is 50 to 500 nM.

Turning to `Cc1noc(-c2ccccc2)c1NC(=O)N1CC(F)C[C@@H]1c1nnc(C)n1Cc1ccc(Cl)cc1` (some centres unmarked) [Compound 573], the IC50 is less than 50 nM.

As to `Cc1nnc([C@H]2CC(F)CN2C(=O)N[C@H]2CCOc3cc(C(F)(F)F)ccc32)n1Cc1ccc(Cl)cc1` (some centres unmarked) [Compound 574], the IC50 was less than 50 nM.

Regarding `Cc1noc(C)c1NC(=O)N1CC(F)C[C@@H]1c1nnc(C)n1Cc1ccc(Cl)cc1` (some centres unmarked) [Compound 575], the concentration for half-maximal inhibition (IC50) was less than 50 nM.

With `Cc1nnc([C@H]2CC(F)CN2C(=O)NC2C[C@@H]2c2ccccc2)n1Cc1ccc(Cl)cc1` (some centres unmarked) [Compound 576], the IC50 is 50 to 500 nM.

`CC[C@H](NC(=O)N1CCC[C@@H]1c1nnc(C)n1Cc1ccc(F)cc1)c1ccc(C(F)(F)F)cc1` [Compound 577]: the IC50 was less than 50 nM.

Regarding `CC[C@H](NC(=O)N1CCC[C@@H]1c1nnc(C)n1Cc1ccc(Br)cc1)c1ccc(C(F)(F)F)cc1` [Compound 578], the IC50 is less than 50 nM.

`Cc1nnc([C@H]2CCCN2c2c(Nc3ccc(F)cc3F)c(=O)c2=O)n1Cc1ccc(Cl)cc1` [Compound 579]: the IC50 is 500 to 5000 nM.

For the compound `Cc1nc(C(F)(F)F)ccc1NC(=O)N1CC(F)C[C@@H]1c1nnc(C)n1Cc1ccc(Cl)cc1` (some centres unmarked) [Compound 580], the IC50 is less than 50 nM.

`Cc1cc(C#N)ccc1NC(=O)N1CC(F)C[C@@H]1c1nnc(C)n1Cc1ccc(Cl)cc1` (some centres unmarked) [Compound 581]: the 50% inhibitory concentration (IC50) was 50 to 500 nM.

For the compound `CCc1nnc([C@H]2CCCN2C(=O)Nc2c(C)noc2C)n1Cc1ccc(Cl)cc1` [Compound 582], the IC50 lay in the range of 50 to 500 nM.

With `CCc1nnc([C@H]2CCCN2C(=O)Nc2ccc(Cl)cc2F)n1Cc1ccc(Cl)cc1` [Compound 583], the IC50 is less than 50 nM.

`CCc1nnc([C@H]2CCCN2C(=O)Nc2ccc(C(F)(F)F)nc2C)n1Cc1ccc(Cl)cc1` [Compound 584]: the IC50 was less than 50 nM.

As for `CC[C@H](NC(=O)N1CCC[C@@H]1c1nnc(C)n1Cc1ccc(Br)cc1)c1cc2ccccc2o1` [Compound 585], the IC50 is less than 50 nM.

On to `CC[C@H](NC(=O)N1CCC[C@@H]1c1nnc(C)n1Cc1ccc(F)cc1)c1cc2ccccc2o1` [Compound 586], for which the IC50 was less than 50 nM.

As to `Cc1cc(C)c(S(=O)(=O)N(C)C)cc1NC(=O)N1CCC[C@@H]1c1nnc(C)n1Cc1ccc(F)cc1` [Compound 587], the half-inhibitory concentration (IC50) is less than 50 nM.

As to `CC[C@H](Nc1c(N2CCC[C@@H]2c2nnc(C)n2Cc2ccc(Cl)cc2)c(=O)c1=O)c1cc2ccccc2o1` [Compound 588], the IC50 was in the range of 50 to 500 nM.

Consider `CC[C@H](Nc1c(N2CCC[C@@H]2c2nnc(C)n2Cc2ccc(Cl)cc2)c(=O)c1=O)c1ccc(C(F)(F)F)cc1` [Compound 589], for which the IC50 lay in the range of 50 to 500 nM.

Turning to `Cc1onc(NC(=O)N2CCC[C@@H]2c2nnc(C)n2Cc2ccc(Cl)cc2)c1F` [Compound 590], the IC50 was 50 to 500 nM.

As to `Cc1nnc([C@H]2CCCN2C(=O)NCC2CN(S(C)(=O)=O)C2)n1Cc1ccc(Cl)cc1` [Compound 591], the IC50 lay within 500 to 5000 nM.

As to `CC(=O)N1CCC(CNC(=O)N2CCC[C@@H]2c2nnc(C)n2Cc2ccc(Cl)cc2)C1` (some centres unmarked) [Compound 592], the IC50 is 50 to 500 nM.

On to `Cc1nnc([C@H]2CCCN2C(=O)NCC2CCN(S(C)(=O)=O)C2)n1Cc1ccc(Cl)cc1` (some centres unmarked) [Compound 593], for which the IC50 was 50 to 500 nM.

In the case of `Cc1nnc([C@H]2CCCN2C(=O)NCC2CCOC2)n1Cc1ccc(Cl)cc1` (some centres unmarked) [Compound 594], the IC50 was 500 to 5000 nM.

`Cc1nnc([C@H]2CCCN2C(=O)Nc2cc(-c3ccc(Cl)cc3)nn2C)n1Cc1ccc(Cl)cc1` [Compound 595]: the half-maximal inhibitory concentration (IC50) is 50 to 500 nM.

With `Cc1nc(NC(=O)N2CCC[C@@H]2c2nnc(C)n2Cc2ccc(Cl)cc2)sc1C` [Compound 596], the IC50 was in the range of 500 to 5000 nM.

Regarding `Cc1sc(NC(=O)N2CCC[C@@H]2c2nnc(C)n2Cc2ccc(Cl)cc2)nc1-c1ccccc1` [Compound 597], the half-maximal inhibitory concentration (IC50) lay in the range of 500 to 5000 nM.

With `CC(=O)N1CCC(CNC(=O)N2CCC[C@@H]2c2nnc(C)n2Cc2ccc(Cl)cc2)CC1` [Compound 598], the IC50 was 50 to 500 nM.

Consider `CC(=O)N1CCCC(CNC(=O)N2CCC[C@@H]2c2nnc(C)n2Cc2ccc(Cl)cc2)C1` (some centres unmarked) [Compound 599], for which the IC50 was in the range of 50 to 500 nM.

As to `Cc1nnc([C@H]2CCCN2C(=O)NCC2CCN(S(C)(=O)=O)CC2)n1Cc1ccc(Cl)cc1` [Compound 600], the IC50 lay in the range of 50 to 500 nM.

As for `Cc1nnc([C@H]2CCCN2C(=O)NCC2CCCN(S(C)(=O)=O)C2)n1Cc1ccc(Cl)cc1` (some centres unmarked) [Compound 601], the IC50 lay in the range of 50 to 500 nM.

For the compound `Cc1nnc([C@H]2CCCN2C(=O)NCCC2CCCCO2)n1Cc1ccc(Cl)cc1` (some centres unmarked) [Compound 602], the IC50 is 50 to 500 nM.

As to `Cc1nnc([C@H]2CCCN2C(=O)Nc2ccc3[nH]ccc3c2)n1Cc1ccc(Cl)cc1` [Compound 603], the half-maximal inhibitory concentration (IC50) is 500 to 5000 nM.

Take `CC(=O)N1CCC(NC(=O)N2CCC[C@@H]2c2nnc(C)n2Cc2ccc(Cl)cc2)c2ccccc21` (some centres unmarked) [Compound 604]: the IC50 was less than 50 nM.

As to `Cc1nc(C(F)(F)F)ccc1N/C(=N\O)N1CCC[C@@H]1c1nnc(C)n1Cc1ccc(Cl)cc1` [Compound 605], the IC50 lay in the range of 50 to 500 nM.

On to `Cc1nnc([C@H]2CCCN2C(=S)Nc2ccc(Cl)cc2F)n1Cc1ccc(Cl)cc1` [Compound 606], for which the half-inhibitory concentration (IC50) was less than 50 nM.

Regarding `Cc1nc(C(F)(F)F)ccc1NC(=S)N1CCC[C@@H]1c1nnc(C)n1Cc1ccc(Cl)cc1` [Compound 607], the half-maximal inhibitory concentration (IC50) was less than 50 nM.

As to `Cc1nnc([C@H]2CCCN2C(=S)Nc2ccc(C(F)(F)F)cc2)n1Cc1ccc(Cl)cc1` [Compound 608], the IC50 is less than 50 nM.

With `Cc1cc(C)c(S(=O)(=O)N(C)C)cc1Nc1c(N2CCC[C@@H]2c2nnc(C)n2Cc2ccc(Cl)cc2)c(=O)c1=O` [Compound 609], the IC50 lay within 50 to 500 nM.

For the compound `Cc1nc(C(F)(F)F)ccc1CC(=O)N1CCC[C@@H]1c1nnc(C)n1Cc1ccc(Cl)cc1` [Compound 610], the IC50 was less than 50 nM.

With `Cc1noc(C)c1N/C(=C\[N+](=O)[O-])N1CCC[C@@H]1c1nnc(C)n1Cc1ccc(Cl)cc1` [Compound 611], the IC50 was less than 50 nM.

As for `Cc1nnc([C@H]2CCCN2/C(=C/[N+](=O)[O-])NCc2ccc(Cl)cc2Cl)n1Cc1ccc(Cl)cc1` [Compound 612], the IC50 was in the range of 50 to 500 nM.

Turning to `Cc1nnc([C@H]2CCCN2/C(=C/[N+](=O)[O-])Nc2ccc(Cl)cc2F)n1Cc1ccc(Cl)cc1` [Compound 613], the IC50 was 50 to 500 nM.
